Assays:
[1] = test system: T cells and NK cells; assay: Internalization of LDH-A488 by T cells and NK cells of human PBMC; format: cell-based; conditions: 10 ug/mL LDH-A488, 30 min, 37° C., IL-2 cultured PBMC
Protocol: FIG. 33. Human PBMC were isolated from healthy human blood via Ficoll gradient. PBMC were cultured for 24 h in RPMI+10% FBS supplemented with 1000 U/mL IL-2. Experimental wells were pulsed with 10 ug/mL LDH-A488 for 30 min (control wells received no LDH) at 37° C. Cells were treated for 2 min with 0.5M acetic acid+150 mM NaCl (pH 2.5), followed by 4 subsequent washes in RPMI+10% FBS. Cells were stained with antibodies directed against CD4, CD8, CD28, and CD95 to delineate T cell subsets (CD28+CD95−, Naïve, Na; CD28+CD95+, central memory, CM; CD28−CD95+, effector memory, EM) or against CD3, CD56, and CD16 to delineate NK cell subsets (CD3-CD56hiCD16−; CD3−CD56dimCD16−; CD3−CD56dimCD16+). Frequency and MFI of A488 was corrected against control (no LDH pulse). Shown are 10 data points: 2 patients on 2 different days (in duplicate), and 1 patient on one day in duplicate.
Human PBMC were isolated from healthy human blood via Ficoll gradient. PBMC were cultured for 24 h in RPMI+10% FBS supplemented with 1000 U/mL IL-2. Experimental wells were pulsed with 10 ug/mL LDH-A488 for 30 min (control wells received no LDH) at 37° C. Cells were treated for 2 min with 0.5M acetic acid+150 mM NaCl (pH 2.5), followed by 4 subsequent washes in RPMI+10% FBS. […]

[2] = test system: monocytes from healthy donors; assay: NKG2D ligand (MICA, MICB, ULBP-1) mRNA induction in monocytes from healthy donors (MHD), qPCR; format: cell-based, human
Source text: FIG. 2. Biochemical purification of tumor-derived Lactate Dehydrogenase, expression in glioma cell lines and verification of LDH-mediated induction of NKG2D ligands on monocytes. (Panel A) Protein purification strategy. […] of U87 glioblastoma cell line supernatant were subjected to ammonium sulfate precipitation. Active fractions were passed over a phenyl Sepharose column and active fractions were then subjected to size exclusion (Superdex 200), followed by ion exchange (MonoS) before Mass Spectroscopy (MS) analysis. (Panel B) Following separation by chromatography, fractions were dialyzed into PBS and cultured with MHD (healthy monocytes) for 18 hours. Whole cell mRNA was reverse transcribed, and induction of MICB and ULBP-1 was analyzed relative to media alone controls. Western blot analysis using a monoclonal antibody to LDH-5 (ab101562) was performed on […] of total protein to confirm the presence of LDH-5 in the active fractions. (Panel C) mRNA isolated from PBMC of healthy donors, 293T cells (as negative controls), and U87, U251, and SF767 glioma cell lines were analyzed for expression of LDHA and LDHB by qPCR. (Panel D) A 1:10 dilution of fresh, unfrozen glioblastoma cell line supernatants was analyzed for total LDH enzymatic activity and expressed as OD 495 nm. (Panel E) Validation of LDH induction of NKG2D ligands in monocytes. Six hundred twenty five U/L of purified, native LDH-5, fresh U87 supernatant, or fresh U87 supernatant in the presence of 100 mM sodium oxamate (NaOx) were cultured with MHD. Eighteen hours later, mRNA was isolated and analyzed for MICA, MICB, and ULBP-1 by qPCR. Values represent induction relative to MHD cultured in media alone. (Panel F) Fresh U87 supernatant, 625 U/L of purified, native LDH-5, LDH-5+0.5 mM Pyruvate (Pyr), or LDH-5+0.5 mM pyruvate and 100 mM NaOx were cultured with MHD. Eighteen hours later, mRNA was isolated and analyzed for MICA, MICB and ULBP-1 by qPCR. Values represent induction relative to MHD cultured in media alone. (Panel G) MHD were cultured with native LDH-5 isolated from liver cells. Eighteen hours later, MICB (black bars) and ULBP-1 (gray bars) were measured by qPCR. (Panel H) Expression of NKG2D and NKp46 on primary human NK cells following a 12 hour incubation with LDH (50 ug/mL) or lactate (20 mM). Cells were surface stained with antibodies directed against CD3, CD56, NKG2D, and NKp46 and analyzed by flow cytometry. The expression level of NKG2D and NKp46 are plotted against CD56. (Panel I) Expression of CD107a on primary human NK cells following IL-2 (1000 U/ml) activation and a 6 hour incubation with LDH (50 ug/mL) or lactate (20 mM). Cells were surface stained with antibodies directed against CD3, CD56, and CD107a and analyzed by flow cytometry. Representative data are shown in the top panels, a summary of percent CD107a+NK cells is shown below. (Panel J) 293T cells were transiently transfected with a pcDNA3.1 (−) vector encoding either LDHA or LDHB, or both constructs. Supernatant was then cultured with CD14-positively selected MHD. Eighteen hours later, MICB and ULBP-1 were measured by qPCR. Values represent induction relative to monocytes cultured in media alone. *P<0.05, **P<0.01.
FIG. 21. Purified native LDH5 or LDH1 was cultured with monocytes from healthy donors. Eighteen hours later, MICB and ULBP-1 were measured by qPCR. Values represent induction relative to monocytes cultured in medium alone. […]

[3] = 156 U/L enzymatically active LDH5 from human liver, monocytes

LDH5: purified native lactate dehydrogenase isoenzyme 5, alpha only tetramer; fluorescently labeled in uptake tests
Internalization of LDH5 by T cells and NK cells [1]: internalize
MICB gene expression compared with medium alone [2, 3]: 7.85 fold induction
ULBP-1 gene expression compared with medium alone [2, 3]: 13.26 fold induction
Lowest concentration of purified native LDH5 that induced transcription of MICB and ULBP-1 ([2]; monocytes from healthy donors, 18 h, qPCR, FIG. 2 panel G): 156 U/L
LDH5 concentration that induced a maximal increase in NKG2D ligand transcription ([2]; monocytes, concentrations above this induced less transcription): 625 U/L

Source: patent US20170029531A1, “INHIBITION OF LACTATE DEHYDROGENASE 5 (LDH-5) BINDING, INCORPORATION, INTERNALIZATION AND/OR ENDOCYTOSIS TO IMMUNE CELLS” (Seattle Children's Hospital (dba Seattle Children's …, priority 2014, published 2017)
